Source: publication PMC2846458 (Nature medicine, 2008)
Where a chain is given by its changes, count along the chain named.

Assays:
ALK2^R206H = target: T1, ALK2^R206H (Homo sapiens, UniProt Q04771, R206H); experiment: Id1 promoter activity; type: cell-based
T1 sequence (Q04771 21-509 R206H): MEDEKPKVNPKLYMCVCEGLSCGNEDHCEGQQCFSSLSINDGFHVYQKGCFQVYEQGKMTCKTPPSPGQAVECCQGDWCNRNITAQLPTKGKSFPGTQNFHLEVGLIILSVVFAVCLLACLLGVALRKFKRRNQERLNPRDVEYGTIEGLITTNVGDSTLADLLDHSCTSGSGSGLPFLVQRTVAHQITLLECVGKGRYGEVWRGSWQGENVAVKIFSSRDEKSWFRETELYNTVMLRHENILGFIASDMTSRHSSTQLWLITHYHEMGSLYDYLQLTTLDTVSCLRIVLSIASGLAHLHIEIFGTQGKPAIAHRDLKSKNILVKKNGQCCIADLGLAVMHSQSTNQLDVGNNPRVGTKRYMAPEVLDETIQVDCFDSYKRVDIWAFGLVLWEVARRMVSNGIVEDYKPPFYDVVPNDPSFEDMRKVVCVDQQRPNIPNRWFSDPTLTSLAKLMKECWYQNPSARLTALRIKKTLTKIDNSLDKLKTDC

[1] = Tolerability of treatment in mice
C2C12 cells = experiment: BMP4-induced alkaline phosphatase activity; type: cell-based; conditions: 100 nM, BMP4 10 ng ml^-1, even when administered 12 h after BMP stimulation
TGF-β signaling = experiment: Immunoblot of TGF-β signaling in PASMCs; type: cell-based; conditions: Mus musculus, PASMC, read-out: IC50 for TGF-β signaling
ALK2^Q207D = target: T2, ALK2^Q207D (Homo sapiens, UniProt Q04771, Q207D); experiment: Id1 promoter activity; type: cell-based
T2 sequence (Q04771 21-509 Q207D): T1 sequence (Q04771 21-509 R206H) with H186R, Q187D

[2] = tested on: Ad.Cre-injected conditional caALK2–transgenic mice; experiment: Ectopic ossification in Ad.Cre-injected conditional caALK2-transgenic mice; type: in vivo, mouse
[3] = 3 mg kg^-1 i.p. every 12 h, lesions attenuated in the remainder

Compound	effect on transcriptional activity induced by ALK2^R206H (ALK2^R206H)	fractures, osteopenia, skeletal abnormalities ([1]; 3 mg kg^-1 i.p. every 12 h, up to P60)	effect on induction of alkaline phosphatase activity by BMP4 (C2C12 cells)	IC50 (TGF-β signaling)	effect on transcriptional activity induced by ALK2^Q207D (ALK2^Q207D)	endochondral bone in hindlimbs (histology) ([2]; 3 mg kg^-1 i.p. every 12 h)	phosphorylated Smad1/5/8 and Runx2 staining in left gastrocnemius ([2]; 3 mg kg^-1 i.p. every 12 h, P11)	passive range of motion in the ankle joint ([2]; 3 mg kg^-1 i.p. every 12 h, P15 and P30, versus vehicle)	fraction of mice in which ectopic bone was prevented at P30 [2, 3]	fraction of mice in which ectopic bone was prevented at P60 [2, 3]	radiographic lesions at P15 ([2]; 3 mg kg^-1 i.p. every 12 h after Ad.Cre on P7)	effect on weight and growth ([1]; wild-type or mutant mice, during drug administration)	ectopic calcifications and immobility at P30 ([2]; 10 mg kg^-1 d^-1 i.p. starting 1 d after Ad.Cre at P7, versus vehicle)
c1ccc2c(-c3cnn4cc(-c5ccc(N6CCNCC6)cc5)cnc34)ccnc2c1 [LDN-193189, 4-[6-(4-piperazin-1-ylphenyl)pyrazolo[1,5-a]pyrimidin-3-yl]quinoline]	blocked the transcriptional activity	without inducing fractures, osteopenia or skeletal abnormalities	inhibited the induction of alkaline phosphatase activity	≥ 1000 nM	blocked the transcriptional activity	substantially less endochondral bone	diminished	significant rescue of function	approximately two-thirds	one-third	prevented radiographic lesions at P15 in all mice examined	–	–
C[C@@H]1C[C@H]2[C@@H]3CCC4=CC(=O)C=C[C@]4(C)[C@@]3(F)[C@@H](O)C[C@]2(C)[C@@]1(O)C(=O)CO [dexamethasone, reference compound]	–	–	–	–	–	–	–	–	–	–	–	severely impaired weight gain	markedly reduced
